# Experimental data from PubChem BioAssay AID1199 (EPA DSSTox, 2008).
# Activity calls are given as the source filed them.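 How the source made its calls: active means a tumour-causing dose and a tumour site recorded for mice in at least one sex group; inconclusive means only government mouse studies exist and were judged inadequate; inactive means mouse studies exist but none gave tumours.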
# Test system: mouse carcinogenicity bioassay, TD50 from CPDB
# Experiment: DSSTox (CPDBAS) Carcinogenic Potency Database Summary Mouse Bioassay Results
# How it was run: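 Values are TD50 carcinogenic potencies from mouse chronic bioassays, taking the most positive result for each sex-species. Sources are published literature and NCI/NTP studies; target sites reflect author-reported positive findings.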
# [1] = TD50_Mouse_Note: no positive results, TargetSites_Mouse_Female: no positive results
# [2] = TD50_Mouse_Note: TD50 is harmonic mean of more than one positive test, greater than ten-fold variation among TD50 values for positive res, TargetSites_Mouse_Female: liver
# [3] = TD50_Mouse_Note: TD50 is harmonic mean of more than one positive test, TargetSites_Mouse_Female: lung
# [4] = TD50_Mouse_Note: TD50 is harmonic mean of more than one positive test, TargetSites_Mouse_Female: liver
# [5] = TD50_Mouse_Note: TD50 is harmonic mean of more than one positive test, TargetSites_Mouse_Female: stomach
# [6] = TargetSites_Mouse_Female: no positive results
# [7] = TargetSites_Mouse_BothSexes: no positive results
structure (smiles),measurement,setting,value
Nc1ccc(S(=O)(=O)c2ccc(N)cc2)cc1,outcome,[1],inactive; no positive results
NC(=O)N(CCO)N=O,Potency,"TD50_Mouse_Note: TD50 is harmonic mean of more than one positive test, TargetSites_Mouse_Female: hematopoietic system",0.00615 mmol/kg/day
C=C(Cl)Cl,Potency,"TD50_Mouse_Note: TD50 is harmonic mean of more than one positive test, TargetSites_Mouse_Female: lung, mammary gland, vascular system",0.357 mmol/kg/day
C[C@]12CC[C@@H]3c4ccc(OC(=O)Cc5ccc(N(CCCl)CCCl)cc5)cc4CC[C@H]3[C@@H]1CC[C@@H]2OC(=O)Cc1ccc(N(CCCl)CCCl)cc1,Potency,"TD50_Mouse_Note: TD50 is harmonic mean of more than one positive test, TargetSites_Mouse_Female: hematopoietic system, lung, myocardium, stomach",0.00184 mmol/kg/day
C1COCCO1,Potency,[2],2.32 mmol/kg/day
O=C1C2CC=CCC2C(=O)N1SC(Cl)(Cl)Cl (stereo not given),Potency,"TD50_Mouse_Note: TD50 is harmonic mean of more than one positive test, TargetSites_Mouse_Female: small intestine",7.02 mmol/kg/day
C=C(C)C#N,outcome,[1],inactive; no positive results
CCN(Cc1cccc(S(=O)(=O)O)c1)c1ccc(C(=C2C=CC(=[N+](CC)Cc3cccc(S(=O)(=O)[O-])c3)C=C2)c2ccc(S(=O)(=O)O)cc2)cc1,outcome,[1],inactive; no positive results
COc1ccc(CCN2CCC(Nc3nc4ccccc4n3Cc3ccc(F)cc3)CC2)cc1,outcome,[1],inactive; no positive results
CCCc1ccc2c(c1)OCO2,Potency,[3],0.761 mmol/kg/day
CN1C(=O)CN=C(c2ccccc2)c2cc(Cl)ccc21,outcome,[1],inactive; no positive results
NC(=S)Nc1cccc2ccccc12,outcome,[1],inactive; no positive results
CN(C)c1ccc(C(=N)c2ccc(N(C)C)cc2)cc1,Potency,[4],0.206 mmol/kg/day
O=C(O)c1cccnc1,outcome,[1],inactive; no positive results
CCCCN(CCCC)C(=S)[S-].CCCCN(CCCC)C(=S)[S-].[Ni+2],outcome,[1],inactive; no positive results
CC(C)=CCl,Potency,[5],0.165 mmol/kg/day
CC1CCC(C(C)C)C(O)C1 (stereo not given),outcome,[1],inactive; no positive results
O=C(O[C@@H]1Cc2c(O)cc(O)cc2O[C@@H]1c1cc(O)c(O)c(O)c1)c1cc(O)c(O)c(O)c1,outcome,TD50_Mouse_Note: no positive results,inactive; no positive results
O=C(O)c1cc(N=Nc2ccc(S(=O)(=O)Nc3ccccn3)cc2)ccc1O,Potency,[4],3.14 mmol/kg/day
Cc1ccccc1,outcome,[1],inactive; no positive results
CCCCC1C(=O)N(c2ccccc2)N(c2ccccc2)C1=O,Potency,[6],1.14 mmol/kg/day
Oc1ccc(O)cc1,Potency,[2],2.04 mmol/kg/day
CCC1(c2ccccc2)C(=O)NC(=O)NC1=O,Potency,"TD50_Mouse_Note: TD50 is harmonic mean of more than one positive test, harmonic mean of TD50 includes a value for upper 99% confidence li, TargetSites_Mouse_Female: liver",0.0317 mmol/kg/day
Cc1ccc2c(-c3cccc(O)c3)nc(=O)n(C(C)C)c2c1,outcome,[1],inactive; no positive results
O=C(O)c1ccc([N+](=O)[O-])cc1,outcome,[1],inactive; no positive results
Cc1nc(N)cc2[nH]c3ccccc3c12,Potency,[2],0.049 mmol/kg/day
[O]=[Nb](=[O])[OH],outcome,[7],inactive
Cc1cccc2ccccc12,outcome,[1],inactive; no positive results
CCNC(=O)Nc1ncc([N+](=O)[O-])s1,Potency,[6],3.51 mmol/kg/day
CN(C)/N=N/c1nc[nH]c1C(N)=O,Potency,"TD50_Mouse_Note: positive test results only by intraperitoneal or intravenous injection, TD50 is harmonic mean of more than one positive, TargetSites_Mouse_Female: hematopoietic system, lung, uterus, vascular system",0.0053 mmol/kg/day
OC[C@H]1O[C@@H]2O[C@H]3[C@H](O)[C@@H](O)[C@@H](O[C@H]4[C@H](O)[C@@H](O)[C@@H](O[C@H]5[C@H](O)[C@@H](O)[C@@H](O[C@H]6[C@H](O)[C@@H](O)[C@@H](O[C@H]7[C@H](O)[C@@H](O)[C@@H](O[C@H]8[C@H](O)[C@@H](O)[C@@H](O[C@H]1[C@H](O)[C@H]2O)O[C@@H]8CO)O[C@@H]7CO)O[C@@H]6CO)O[C@@H]5CO)O[C@@H]4CO)O[C@@H]3CO,outcome,[1],inactive; no positive results
Nc1c(Cl)cc(Cl)cc1Cl,Potency,[6],1.32 mmol/kg/day
Nc1ccc(NC(=O)c2ccc(N)cc2)cc1,outcome,[1],inactive; no positive results
CC/C(=C(/CC)c1ccc(O)cc1)c1ccc(O)cc1,Potency,"TD50_Mouse_Note: TD50 is harmonic mean of more than one positive test, TargetSites_Mouse_Female: mammary gland, ovary, pituitary gland, thyroid gland, uterus",0.000146 mmol/kg/day
CC[C@H](OC(C)=O)C(C[C@H](C)N(C)C)(c1ccccc1)c1ccccc1,outcome,[1],inactive; no positive results
O=C(O)C1[O][Sb]2[O]C(=O)C([O]2)C(C(=O)O)[O][Sb]2[O]C(=O)C1[O]2 (stereo not given),outcome,[7],inactive
NC(N)=NC(N)=NCCc1ccccc1,outcome,[1],inactive; no positive results
N#Cc1c(Cl)c(Cl)c(Cl)c(C#N)c1Cl,outcome,[1],inactive; no positive results
Cc1cccc(OCC(O)CNC(C)(C)C)c1C (stereo not given),outcome,[1],inactive; no positive results
CCCCN(N)CCCC,Potency,"TD50_Mouse_Note: TD50 is harmonic mean of more than one positive test, TargetSites_Mouse_Female: lung, stomach",0.313 mmol/kg/day
CCN(CC)CCOc1ccc(/C(=C(\Cl)c2ccccc2)c2ccccc2)cc1,outcome,[1],inactive
OCC(CO)(CBr)CBr,Potency,"TD50_Mouse_Note: TD50 is harmonic mean of more than one positive test, TargetSites_Mouse_Female: harderian gland, lung, subcutaneous tissue",0.523 mmol/kg/day
O=C(O)C(Cl)(Cl)Cl,Potency,[4],3.57 mmol/kg/day
COP(=S)(OC)SCn1nnc2ccccc2c1=O,outcome,[1],inactive; no positive results
Nc1ccc(N=Nc2ccc(-c3ccc(N=Nc4c(S(=O)(=O)O)cc5cc(S(=O)(=O)O)c(N=Nc6ccccc6)c(O)c5c4N)cc3)cc2)c(N)c1,Potency,"TargetSites_Mouse_BothSexes: liver, mammary gland",0.0916 mmol/kg/day
CCC(Cl)CCC(Cl)C(Cl)CC(Cl)C(Cl)C(Cl)CCl (stereo not given),outcome,"TD50_Mouse_Note: TD50 is harmonic mean of more than one positive test, TD50_Mouse_mmol was not calculated for this mixture, but Activiity, TargetSites_Mouse_Female: liver, thyroid gland",active; liver
NNC(=O)c1cccnc1,Potency,[3],1.66 mmol/kg/day
[N]=O,outcome,[1],inactive
O=C1CCC(=O)O1,outcome,[1],inactive; no positive results
Oc1ccc2c(c1)OCO2,Potency,[5],32.5 mmol/kg/day
CN(C)[C@@H]1C(=O)C(C(N)=O)=C(O)[C@@]2(O)C(=O)C3=C(O)c4c(O)cccc4[C@@](C)(O)[C@H]3C[C@@H]12,outcome,[1],inactive; no positive results
COC(C(=O)O)c1ccccc1 (stereo not given),outcome,[1],inactive; no positive results
C=CCc1ccc(OC)cc1,Potency,TargetSites_Mouse_Female: liver,0.35 mmol/kg/day
CC1(C)[C@H](C(=O)O[C@H](C#N)c2cccc(Oc3ccccc3)c2)[C@@H]1C=C(Br)Br,outcome,[1],inactive; no positive results
Cc1cc(C)nc(NS(=O)(=O)c2ccc(N)cc2)n1,Potency,"TD50_Mouse_Note: TD50 is harmonic mean of more than one positive test, TargetSites_Mouse_Female: thyroid gland",5.43 mmol/kg/day
CCOC(=O)C(O)(c1ccc(Cl)cc1)c1ccc(Cl)cc1,Potency,[2],0.289 mmol/kg/day
COC(=O)C1=C(C)NC(C)=C(C(=O)OCCN2CCN(C(c3ccccc3)c3ccccc3)CC2)C1c1cccc([N+](=O)[O-])c1 (stereo not given),outcome,[1],inactive; no positive results
CS(=O)(=O)OCCCNCCCOS(C)(=O)=O,outcome,[1],inactive; no positive results
CC1=C[C@H]2[C@@]3(O)[C@H](C)[C@@H](O)[C@]4(O)[C@H]([C@@H]3C=C(CO)C[C@]2(O)C1=O)C4(C)C,Potency,"TD50_Mouse_Note: positive test results only by intraperitoneal or intravenous injection, TargetSites_Mouse_Female: hematopoietic system",0.00606 mmol/kg/day
CC[C@H](C)C(=O)O[C@H]1C[C@@H](C)C=C2C=C[C@H](C)[C@H](CC[C@@H]3C[C@@H](O)CC(=O)O3)[C@H]21,Potency,"TD50_Mouse_Note: TD50 is harmonic mean of more than one positive test, TargetSites_Mouse_Female: liver, lung, stomach",1.27 mmol/kg/day
CCOP(=S)(OCC)SC1OCCOC1SP(=S)(OCC)OCC (stereo not given),outcome,[1],inactive; no positive results
C=C(C)C(=O)Nc1ccc(Cl)c(Cl)c1,outcome,[1],inactive; no positive results
CCN(CC)C(=S)S[Se](SC(=S)N(CC)CC)(SC(=S)N(CC)CC)SC(=S)N(CC)CC,Potency,[6],0.00222 mmol/kg/day
COc1cc2c(c3c1c(=O)c1ccccc1n3C)C=CC(C)(C)O2,outcome,"TD50_Mouse_Note: only experiment is NCI/NTP bioassay inadequate, TargetSites_Mouse_Female: NTP bioassay inadequate",ntp bioassay inadequate
C[N+](C)(C)CCCl,outcome,[1],inactive; no positive results
[O-]/[N+](=N\O)c1ccccc1,Potency,"TD50_Mouse_Note: TD50 is harmonic mean of more than one positive test, TargetSites_Mouse_Female: ear Zymbals gland, harderian gland, liver, vascular system",3.77 mmol/kg/day
CC(C)CCCCCCOC(=O)c1ccccc1C(=O)OCCCCCCC(C)C,outcome,"TD50_Mouse_Note: TD50 is harmonic mean of more than one positive test, TD50_Mouse_mmol was not calculated for this mixture, but Activiity, TargetSites_Mouse_Female: liver",active; liver
ClC1=C(Cl)C2(Cl)C3C(Cl)C=CC3C1(Cl)C2(Cl)Cl (stereo not given),Potency,[4],0.00324 mmol/kg/day
CCOP(=S)(OCC)Oc1cc(C)nc(C(C)C)n1,outcome,[1],inactive; no positive results
ClCCCl,Potency,"TD50_Mouse_Note: TD50 is harmonic mean of more than one positive test, TargetSites_Mouse_Female: liver, lung, mammary gland, uterus",1.39 mmol/kg/day
CNC[C@H](O)c1cccc(O)c1,outcome,[1],inactive; no positive results
Nc1c(Cl)c(Cl)nc(C(=O)O)c1Cl,outcome,[1],inactive; no positive results
CCn1nc(C)c2c1C(c1ccccc1)=NCC(=O)N2,Potency,[4],0.425 mmol/kg/day
Cc1cc(Cl)ccc1OCC(=O)O,outcome,[1],inactive; no positive results
NC(N)=O,outcome,[1],inactive; no positive results
C[C@@H]1CCC[C@H](C)N1CCCC(O)(c1ccccc1)c1ccccn1 (stereo not given in full),outcome,[1],inactive; no positive results
CC1=C[C@H]2O[C@@H]3[C@H](O)[C@@H](O)[C@@](C)(C34CO4)[C@@]2(CO)[C@H](O)C1=O (stereo not given in full),outcome,[1],inactive
CC(=O)Nc1ccc(O)cc1,Potency,[4],10.7 mmol/kg/day
CCCCNC(N)=O,outcome,[1],inactive; no positive results
CN(C)c1ccc(C(=O)c2ccc(N(C)C)cc2)cc1,Potency,[4],0.313 mmol/kg/day
O=c1ccc2ccccc2o1,Potency,"TD50_Mouse_Note: TD50 is harmonic mean of more than one positive test, TargetSites_Mouse_Female: liver, lung",0.705 mmol/kg/day
CCC(C)c1cc([N+](=O)[O-])cc([N+](=O)[O-])c1O (stereo not given),outcome,[1],inactive; no positive results
OCC1CO1 (stereo not given),Potency,"TD50_Mouse_Note: TD50 is harmonic mean of more than one positive test, TargetSites_Mouse_Female: harderian gland, mammary gland, skin, subcutaneous tissue, uterus",0.468 mmol/kg/day
CCN(N)C=O,Potency,"TD50_Mouse_Note: TD50 is harmonic mean of more than one positive test, TargetSites_Mouse_Female: lung, vascular system",0.0318 mmol/kg/day
O=C(Nc1nc(-c2ccc([N+](=O)[O-])o2)cs1)C(F)(F)F,Potency,TargetSites_Mouse_Female: stomach,0.0325 mmol/kg/day
